Test results: patent publication US20240390318A1, “PHARMACEUTICAL COMPOSITION COMPRISING CDK INHIBITOR AND ID2 ACTIVATOR FOR PREVENTION OR TREATMENT OF BLADDER CANCER” (THE ASAN FOUNDATION, priority 2021, published 2024)

How the values were obtained:
[1] = system: ID2; assay: ID2 expression in bladder cancer cells (qPCR, Western blot); format: cell-based, human; details: HT1197 and HT1376 cells; ID2 activators 40 μM, CDK1 inhibitors 20 μM, 24 hours
Method: (§1) Human BC cell lines T24, 5637, HT1197, HT1376, and RT4 were cultured in Eagle's Minimum Essential (for HT1197 and HT1376), McCoy's 5a Medium Modified (for T24 and RT4), and RPMI-1640 (for […]) medium (ATCC, Manassas, VA, USA) including 10% heat-inactivated FBS (Hyclone, Pittsburgh, PA, USA) and penicillin/streptomycin (Cellgro, Pittsburgh, PA, USA). 40 μM apigenin (Sigma-Aldrich, Burlington, MA, USA), 4-hydroxychalcone (Sigma-Aldrich), and diosmetin (Sigma-Aldrich) were treated for 24 hours to activate ID2 expression, and 20 μM RO-3306 (Sigma-Aldrich) and CGP74514A (Sigma-Aldrich) were treated for 24 hours to inhibit CDK1 activity.
Real-time quantification PCR was used to perform quantitative analysis of gene expression. Total RNA was extracted using the QIAGEN RNeasy RNA isolation kit (QIAGEN, Valencia, CA, USA), and 50 ng of total RNA was reverse transcribed using Taqman Reverse Transcription Reagents (Applied Biosystems, Foster City, CA, USA). Threshold cycles (Ct) were used to determine the relative expression levels of target genes using the 2-DDCt method. The expression of GAPDH was used as an endogenous control gene.
(§2) Cell extracts (30 μg) were prepared in RIPA lysis buffer (Santa Cruz Biotechnology) supplemented with a protease and phosphatase inhibitor cocktail (Roche, Indianapolis, IN, USA) and isolated in a 12% SDS-PAGE gel. An expression level of the labeled protein was assessed by probing with the following antibodies: ID2 (NBP-88630; Novusbio, Centennial, CO, USA), TFCP2L1 (OAAB09732; Aviva Systems Biology, San Diego, CA, USA), CDK1 (sc-54; Santa Cruz), PARP (9542; Cell Signaling), Cleaved Caspase-3 (9661; Cell Signaling), b-ACTIN (A5441; Sigma-Aldrich), and Flag-epitope (F3165; Sigma-Aldrich).

[2] = system: bladder cancer cell lines; assay: Cell proliferation by MTT assay; format: cell-based, human; details: for growth of BC cells: bladder cancer cell lines, apigenin with increasing dosage; for cell growth, proliferation: low concentrations, single or co-treatment
Method: as §1
(§3) The cell proliferation ability was determined by MTT assay (Sigma-Aldrich). Apoptosis was analyzed by annexin-V fluorescein isothiocyanate (FITC)/propidium iodide (PI) assay. Cells were subjected to trypsin, harvested, washed with PBS, resuspended in annexin-V binding buffer (10 mM HEPES, pH 7.4, 140 mM NaCl, 2.5 mM CaCl2)), and labeled with Annexin-V FITC and PI. FITC- and/or PI-labeled cell colonies were quantified by flow cytometry (Beckman Coulter, Brea, CA, USA).

[3] = system: bladder cancer cell lines; assay: Tumor sphere formation; format: cell-based, human
Method: To form tumor spheres, BC cells were resuspended in a single-cell suspension mixed with serum-free keratinocyte growth medium (Gibco, Waltham, MA, USA) and growth factor-reduced Matrigel (BD Biosciences, Mountain View, CA, USA) in a 1:1 ratio, and cultured on ultra-low attachment plates (Costar, Corning, NY, USA). The size of the tumor sphere was measured for 7 days after the first culture. For quantitative analysis, Image J software (National Institute of Mental Health, Bethesda, MD, USA) was used to measure the circumference of tumor sphere in eight representative regions randomly selected from each group.

[4] = system: bladder cancer cell lines; assay: Apoptosis by annexin-V FITC/PI flow cytometry; format: cell-based, human; details: for apoptosis of BC cells: bladder cancer cell lines, apigenin time-dependent treatment; for apoptosis of bladder cancer cells: low concentrations, single or co-treatment
Method: as §1, §3

[5] = system: TFCP2L1; assay: TFCP2L1 protein expression in orthotopic xenograft bladder (immunofluorescence); format: in vivo, mice; details: HT1376 orthotopic xenograft; RO-3306 4 mg/kg alone or with apigenin 50 mg/kg i.p.
Method: (§4) All animal experiments conducted in this experiment were carried out with the approval of the Institutional Animal Care Committee (IACUC-2020-12-209) of the University of Ulsan College of Medicine. 8-week-old male NOD/[…]) mice were purchased from GEM Biosciences Inc. (Cheongju, South Korea). 100 μl of 1.0×10^6 HT1376 BC cells were injected into the anterior wall of the bladder and the outer layer of the dome using a […] and a 26-gauge needle in the mice adapted for 1 week at the Animal Laboratory of Asan Medical Center, Seoul. Three weeks after orthotopic transplantation of BC cells, mice were injected intraperitoneally with RO-3306 (4 mg/kg) and apigenin (50 mg/kg), either alone or in combination, for 6 times at 4-day intervals. Mice and injection sites were monitored every 2 days for 45 days after the initial administration of BC cells. Tumor size was measured at the endpoint, and the tumor site was recovered by incision to perform histological examination or immunofluorescence assay. Mice were randomly assigned to the treatment group (N=5 or 10) and randomized to the sequence of cell transplantation, treatment, evaluation, and daily checkup. […] The stained samples were photographed using an inverted fluorescence microscope (EVOS FL Color Imaging System, Life Technologies).

[6] = system: CDK1; assay: CDK1 protein expression in orthotopic xenograft bladder (immunofluorescence); format: in vivo, mice; details: HT1376 orthotopic xenograft; RO-3306 4 mg/kg alone or with apigenin 50 mg/kg i.p.
Method: as §4

[7] = system: HT1376 cells; assay: Orthotopic xenograft BC animal model, tumor size and histological examination; format: in vivo; details: NSG mice; for tumor growth suppression/inhibition: i.p. apigenin 50 mg/kg and/or RO-3306 4 mg/kg, 6 times at 4-day intervals
Method: as §4, with “checkup. Investigations related to tumor size measurement and histological assessment were conducted as blind tests for the treatment group. For histological analysis, the bladder of xenograft mice was fixed with 4% paraformaldehyde for 1 day. After 24 hours of cryoprotection in 30% sucrose, each bladder was cut into 20 μm sections using cryostat (Leica, Lussloch, Germany) and stained with hematoxylin and eosin (H&E). For immunofluorescence (IF) staining, the bladder was stained with antibodies specific to ID2 (NBP-88630; Novusbio), TFCP2L1 (OAAB09732; Aviva Systems Biology), CDK1 (ab131450; Abcam, Cambridge, MA, USA), CD44 (ab78960; Abcam), and Cytokeratin 14 (KRT14; Ab7800).” for “checkup.”

[8] = system: bladder cancer cell lines; assay: Western blot of caspase-3 and PARP cleavage; format: cell-based, human; details: for cleavage of caspase-3 and PARP: low concentrations, single or co-treatment
Method: as §1, §2

[9] = system: ID2; assay: ID2 protein expression in orthotopic xenograft bladder (immunofluorescence); format: in vivo, mice; details: HT1376 orthotopic xenograft; RO-3306 4 mg/kg alone or with apigenin 50 mg/kg i.p.
Method: as §4

[10] = system: bladder cancer cell lines; assay: In vitro cell invasion (Transwell, Matrigel); format: cell-based, human
Method: The upper chamber of the Transwell permeable support (Corning Inc, Corning, NY, USA) with an 8.0 μm pore polycarbonate membrane filter was coated with Matrigel (BD Biosciences) diluted in a 1:5 ratio. BC cells were loaded into the upper chamber at 2×10^4 cell/well concentrations in 100 μL of serum-free DMEM, and culture medium containing 3% FBS was filled into the lower chamber. Cell invasiveness was evaluated by culturing cells at 37° C. for 24 hours in a 5% CO2 incubator and then counting the number of cells that migrated to the bottom of the membrane. Three fields of view (magnification, ×200) were randomly selected from each transwell chamber for quantitative analysis.

SMILES | expression of ID2 at RNA and protein levels [1] | growth of BC cells [2] | tumor sphere forming ability [3] | apoptosis of BC cells [4] | expression of TFCP2L1 protein [5] | expression of CDK1 protein [6] | tumor growth suppression/inhibition [7] [%] | cell growth, proliferation [2] | cleavage of caspase-3 and PARP [8] | expression level of ID2 protein [9] | apoptosis of bladder cancer cells [4] | invasiveness of BC cells [10] | histological examination: therapeutic effect, size and progression of bladder cancer ([7]; i.p. 6 times at 4-day intervals) | cleavage of caspase-3 and poly-(ADP-ribose) polymerase (PARP) ([8]; bladder cancer cell lines)
O=C(/C=C/c1ccc(O)cc1)c1ccccc1 [4-hydroxychalcone] | increase in ID2 expression | reduced the growth of bladder cancer cells | tumor forming ability was reduced | activated apoptosis |  |  |  |  |  |  |  |  |  | 
CCn1cnc2c(Nc3cccc(Cl)c3)nc(N[C@@H]3CCCC[C@@H]3N)nc21 [CGP74514A] | increase in ID2 expression |  |  |  |  |  |  |  |  |  |  |  |  | 
O=C1NC(=NCc2cccs2)S/C1=C\c1ccc2ncccc2c1 [RO-3306] | increased |  |  |  | high | high | 66.8±2.48 | no significant effect | no significant effect | low | does not induce |  |  | 
O=c1cc(-c2ccc(O)cc2)oc2cc(O)cc(O)c12 [apigenin] | increased | decreased significantly | remarkably inhibit | activated |  |  | 74±6.13 | no significant effect | no significant effect |  | does not induce | remarkably inhibit | therapeutic effect of apigenin on bladder cancer regardless of tumor grade | resulted in cleavage of caspase-3 and poly-(ADP-ribose) polymerase (PARP)
COc1ccc(-c2cc(=O)c3c(O)cc(O)cc3o2)cc1O [diosmetin] |  | reduced bladder cancer cell growth | decreased tumor forming ability | activated apoptosis |  |  |  |  |  |  |  |  |  | 
